From patent publication US8367365B2, “Method for determining carbohydrate and kit for determining carbohydrate” (priority 2008, dated 2013) come the findings set out here.

The data set concerns porcine small intestinal mucosal disaccharidase (suspension of porcine small intestinal mucosal brush border membrane). It counts as in vitro ADME. As to conditions: porcine small intestine-derived disaccharidase added to the enzyme reaction system, HPLC.

Where two headings read alike, the source gives them in different places.

Source text: In the method for determining a carbohydrate according to the embodiment of the present invention and the method for determining a carbohydrate according to Examples described below, a suspension of porcine small intestinal mucosal brush border membrane is used as the animal-derived low-molecular-weight carbohydrate digestive enzyme.

As to `OC[C@H]1O[C@@](CO)(O[C@H]2O[C@H](CO)[C@@H](O)[C@H](O)[C@H]2O)[C@@H](O)[C@@H]1O` [sucrose], the “Digestion by porcine small intestinal mucosal disaccharidases (result in words)” value was “almost completely digested”. The “Digestion by porcine small intestinal mucosal disaccharidases (result in words)” value (listed as Sucrose) is on record as “completely digested”.
